The source of these data is patent US4251658A, “3-(1-Pyrazolyl)-pyridazine derivatives” (Richter Gedeon Vegyeszeti Gyar Rt., priority 1977, dated 1981).

Data set [1] concerns the target prostaglandin-A isomerase (PGAI). Kind of data set: Prostaglandin-A isomerase (PGAI) inhibiting action, PGAI preparation from the blood-plasma of pigs. The note with it: read-out: I50% inhibiting levels in final concentrations, PGAI. The format is biochemical. An excerpt:
(§1) The I50%, i.e. the index of inhibition is defined as the concentration of the substance inhibiting to 50% the function of the corresponding enzyme.

Data set [2] deals with T1, prostaglandin dehydrogenase (PGDH) (Sus scrofa, UniProt A0ACM8QJV0).
T1 construct: PGDH preparation from pig-lung; from tissue; host or cells: pig lung
T1 sequence (A0ACM8QJV0 1-266): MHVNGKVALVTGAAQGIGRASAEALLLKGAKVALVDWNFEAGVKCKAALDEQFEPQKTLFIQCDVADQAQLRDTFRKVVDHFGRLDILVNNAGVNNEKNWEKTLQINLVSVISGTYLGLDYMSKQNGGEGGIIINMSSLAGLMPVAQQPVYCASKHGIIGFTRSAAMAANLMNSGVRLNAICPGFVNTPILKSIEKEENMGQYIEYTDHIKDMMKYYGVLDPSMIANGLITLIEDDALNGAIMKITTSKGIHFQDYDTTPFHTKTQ
The data set can be described thus: Prostaglandin dehydrogenase (PGDH) inhibiting action, PGDH preparation from pig-lung. In kind it is biochemical. Conditions: read-out: I50% inhibiting levels in final concentrations, PGDH.
Excerpt: as §1

The nature of data set [3]: Hypotensive action in narcotized cats. The note with it: pentobarbital narcosis. In kind it is in vivo. On the procedure: The substances were administered in doses of 5, 2.5 and 1 mg./kg., respectively, and Hydralazine (1-hydrazinophthalazine hydrochloride) was used as reference compound.
The nature of data set [4]: in vivo. The note with it: mouse, mice, oral, read-out: Acute oral toxicity on mice LD50.
A short description of data set [5]: Systolic blood pressure in the caudal artery of spontaneously hypertensive (Wistar-Okamoto) rats, oral treatment. The format is in vivo. Conditions: for decrease in systolic blood pressure: oral.

Take `CCOC(=O)c1cnn(-c2ccc(NC3CCCCC3)nn2)c1N` [Example 5, 3-Cyclohexylamino-A]: the IC50 in data set [1] was 100 µM.
On to `CCOC(=O)c1cnn(-c2ccc(NCc3ccco3)nn2)c1N` [Example 6, 3-Furfurylamino-A], for which the IC50 in data set [1] worked out at 50 µM; in data set [2], 55 µM.
Turning to `CCOC(=O)c1cnn(-c2ccc(NCc3ccccc3)nn2)c1N` [Example 7, 3-Benzylamino-A], the “Decrease in blood pressure in Hgmm by 1 mg./kg.” value (from here on “Decrease in blood pressure”) in data set [3] is recorded as -15 Hgmm. The 50% lethal dose (LD50) in data set [4] is 1000 mg/kg.
As to `CCOC(=O)c1cnn(-c2ccc(NCCN(CC)CC)nn2)c1N` [Example 11, 3-(2-Diethylaminoethylamino)-A], the IC50 in data set [1] was 44 µM.
On to `CCOC(=O)c1cnn(-c2ccc(NCc3ccccn3)nn2)c1N` [Example 16, 3-(2Pyridylmethylamino)-A], for which the IC50 in data set [1] is 75 µM; in data set [2], 150 µM.
For `CCOC(=O)c1cnn(-c2ccc(NCc3cccnc3)nn2)c1N` [Example 17, 3-(3-Pyrdiylmethylamino)-A], the IC50 in data set [1] worked out at 25 µM; in data set [2] it was 200 µM.
Take `CCOC(=O)c1cnn(-c2ccc(NCc3ccncc3)nn2)c1N` [Example 18, 3-(4-Pyridylmethylamino)-A]: the IC50 in data set [1] is 36 µM.
Regarding `CCOC(=O)c1cnn(-c2ccc(NC(C)c3ccccc3)nn2)c1N` (centres unmarked) [Example 20, 3-(1-Phenylethylamino)-A], the IC50 in data set [1] is 180 µM.
Regarding `CN(N)c1ccc(-n2ncc(C#N)c2N)nn1` [Example 30, 3-(1-methylhydrazino)-6-(4-cyano-5-amino-1-pyrazolyl)-pyridazine], the tachycardia result in data set [5] (against Hydralazine) is “does not cause any significant tachycardia”. Moreover, the “decrease in systolic blood pressure” value in data set [5] (20 mg./kg., after 2 hours) was found to be 31%; in data set [5] (20 mg./kg., after 5 hours) it was 16%; in data set [5] (20 mg./kg., after 24 hours), 15%. Further, the “Decrease in blood pressure” value in data set [3] was -40 Hgmm. Moreover, in data set [4], the LD50 was determined as 200 mg/kg.
For `NNC(=O)c1cnn(-c2ccc(N(CCO)CCO)nn2)c1N` [Example 31, 3-[bis(2-Hydroxyethyl)-amino]-6-(4-carbazoyl-5-amino-1-pyrazolyl)-pyridazin], the “Decrease in blood pressure” value in data set [3] is reported as -10 Hgmm. In addition, in data set [4], the LD50 was found to be 250 mg/kg.
As to `NNC(=O)c1cnn(-c2cccnn2)c1N` [Example 32], the “Decrease in blood pressure” value in data set [3] was -10 Hgmm. Besides, in data set [4], the median lethal dose (LD50) is 200 mg/kg.
As to `COc1ccc(CCNc2ccc(-n3ncc(C(=O)NN)c3N)nn2)cc1OC` [Example 33, 3-(3,4-Dimethoxyphenylethyl-amino)-B], the “Decrease in blood pressure” value in data set [3] is listed as -10 Hgmm. Further, the median lethal dose (LD50) in data set [4] is approximately 150 mg/kg.
In the case of `Cl.NNc1nncc2ccccc12` [Hydralazine, 1-hydrazinophthalazine hydrochloride, reference compound], the “decrease in systolic blood pressure” value in data set [5] (10 mg./kg. (reference), after 2 hours) is 21%; in data set [5] (10 mg./kg. (reference), after 5 hours), 22%; in data set [5] (10 mg./kg. (reference), after 24 hours) it was 15%. The “Decrease in blood pressure” value in data set [3] was -40 Hgmm. Further, the IC50 in data set [1] came out at 90 µM.

One may read the LD50 as the dose at which mortality reaches 50%.
